Five compounds from US20090155180A1, “Methods and targets for identifying compounds for regulating rhinovirus infection” (priority 2007, published 2009) can be followed below.

One assay concerns IP-10 (CXCL10). The assay can be described thus: IP-10 level in BEAS-2B cells infected with rhinovirus RV-16. The assay is classed as cell-based, human. Conditions: BEAS-2B cells infected with RV-16; test ingredient at 5 μM andrographolide content; control 61.99. The source says: An in vitro cell line of BEAS-2B cells can be infected with rhinovirus RV-16. The cells are then exposed to various compounds and extracts and subsequently levels of respiratory biomarker proteins can be assayed. Extracts and compounds are identified as regulating the respiratory biomarker proteins by monitoring the levels of the respiratory biomarker proteins after exposure of the infected cells to the extracts and compounds and comparing to the levels of the respiratory biomarker proteins in infected cells that have not been exposed to extracts and compounds.
In the example, the test ingredients are extracts of the herb andrographis paniculata, or its principal component, andrographolide. The test ingredients are tested at a level of 5 μM andrographolide content. The respiratory biomarker protein is IP-10 (CXCL10), a chemotactic agent.

Assay [1] has as its system NF-kB. Description: IL1b-induced NFkB nuclear translocation (Cellomics HitKit), BEAS-2B cells. Format: cell-based. The settings on record: Homo sapiens, 0.5 h, IL1b 0.5 ng/ml for 30 min, then inhibitor 30 min. From the text:
(§1) Because NF-κB must be in the nucleus to induce gene expression, its translocation is a definitive measure of its activation and marks an earlier event than reporter gene expression. This assay is an example of a 96-well medium throughput technology that can detect NF-κB translocation in several cell types.
(§2) Assays may be performed in standard, high-density microplates, where measurements of the rate and extent of NF-κB translocation are made in intact cells which provides more biological representative information. Cellomics' NF-κB activation kit (Cat. No. K01-001-1) may combine fluorescent reagents and protocols for optimized sample preparation and assays, and requires no cell lysis, purification or filtration steps. After fixation, the plates are stable for extended periods, when stored light-protected at 4° C.
(§3) One may create a fully automated screen to identify compounds that inhibit or activate NF-[…]B on a cell-by-cell basis. Prepared cells can be analyzed using standard fluorescence microscopy or using Cellomics' fully automated HCS Reader with the Cytoplasm to Nucleus Translocation Bioapplication, affording automated plate handling, focusing, image acquisition, analysis, quantification, and data storage.

Assay [2] deals with NF-kB. Description: IL1b-induced NFkB nuclear translocation (Cellomics HitKit), A549 cells. The assay is classed as cell-based. Conditions: Homo sapiens, 0.5 h, IL1b 0.05 ng/ml for 30 min, then inhibitor 30 min.
Text: as §1, §2, §3

A further assay has as its target T1, human recombinant COX-2 (Homo sapiens, UniProt P35354).
T1 sequence (P35354 18-604): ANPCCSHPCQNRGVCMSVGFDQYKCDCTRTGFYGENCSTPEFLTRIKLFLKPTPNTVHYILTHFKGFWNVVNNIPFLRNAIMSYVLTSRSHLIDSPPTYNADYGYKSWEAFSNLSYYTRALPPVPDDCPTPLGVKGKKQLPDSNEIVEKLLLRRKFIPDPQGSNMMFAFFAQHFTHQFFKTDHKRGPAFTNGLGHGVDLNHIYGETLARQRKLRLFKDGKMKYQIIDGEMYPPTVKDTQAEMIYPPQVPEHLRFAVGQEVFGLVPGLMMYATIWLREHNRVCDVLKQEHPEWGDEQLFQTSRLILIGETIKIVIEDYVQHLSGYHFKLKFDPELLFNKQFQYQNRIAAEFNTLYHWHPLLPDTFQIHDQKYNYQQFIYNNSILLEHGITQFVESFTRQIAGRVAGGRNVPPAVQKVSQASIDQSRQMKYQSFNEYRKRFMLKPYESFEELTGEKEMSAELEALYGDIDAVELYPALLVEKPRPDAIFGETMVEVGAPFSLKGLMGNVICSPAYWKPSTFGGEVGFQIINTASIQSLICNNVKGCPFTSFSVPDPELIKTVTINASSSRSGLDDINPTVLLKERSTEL
Description: biochemical. Conditions: purified enzyme. From the text: An example of a COX Inhibitor Screening Assay (Cat. No. 560101 manufactured by Cayman Chemical Company, Ann Harbor, Mich.) directly measures PGF2 produced by SnCl2 reduction of COX-derived PGH2. The prostanoid product may be quantified via enzyme immunoassay (EIA) using a broadly specific antibody that binds to all the major prostaglandin compounds. […] The Cayman COX Inhibitor Screening Assay includes both ovine COX-1 and human recombinant COX-2 enzymes in order to screen isozyme-specific inhibitors.
An assay for prostaglandin is available from Cisbio International, Bedford Mass. One cell line suitable for infection by rhinovirus is A549 (ATCC designation CCL-185), a human epithelial lung carcinoma available from ATCC, Manassas, Va. […] A COX assay is available from Cayman Chemical, Ann Arbor, Mich.

A further assay has as its target T2, ovine COX-1 (Ovis aries, UniProt P05979).
T2 construct: purchased Cayman Chemical Company 560101
The assay can be described thus: COX Inhibitor Screening Assay (Cayman), COX-1. The assay is classed as biochemical. The source says:
An example of a COX Inhibitor Screening Assay (Cat. No. 560101 manufactured by Cayman Chemical Company, Ann Harbor, Mich.) directly measures PGF2 produced by SnCl2 reduction of COX-derived PGH2. The prostanoid product may be quantified via enzyme immunoassay (EIA) using a broadly specific antibody that binds to all the major prostaglandin compounds. Thus, the COX assay is more accurate and reliable than an assay based on peroxidase inhibition. The Cayman COX Inhibitor Screening Assay includes both ovine COX-1 and human recombinant COX-2 enzymes in order to screen isozyme-specific inhibitors. This assay may be an excellent tool which can be used for general inhibitor screening, or to eliminate false positive leads generated by less specific methods.
(§4) Test compounds may be assayed for inhibition of prostaglandin production via contacting them individually with cells that have been infected with rhinovirus. An assay for prostaglandin is available from Cisbio International, Bedford Mass. One cell line suitable for infection by rhinovirus is A549 (ATCC designation CCL-185), a human epithelial lung carcinoma available from ATCC, Manassas, Va. […] A COX assay is available from Cayman Chemical, Ann Arbor, Mich.

The test system of the next assay is PGE2 formation. The assay can be described thus: PGE2 formation in cells infected with rhinovirus (Cisbio HTRF assay). Format: cell-based, human.
Text: There are several standard methods available for quantifying PGE2. The HTRF® PGE2 assay (developed by Cisbio International, Cat. No. 62P2APEB) is an example of a highly sensitive method for quantifying PGE2. Its principle is based on HTRF technology (Homogeneous Time-Resolved Fluorescence). It can be performed either in cell supernatants or directly in the presence of whole cells. This method is a competitive immunoassay in which native PGE2 produced by cells, and d2-labelled PGE2 compete for binding to MAb anti-PGE2 labeled with cryptate. The HTRF signal is inversely proportional to the concentration of PGE2 in the calibrator or in the sample. The incubation time and temperature following addition of the HTRF detection reagents has little effect on the assay results providing another level of assay flexibility.
Briefly, consecutive dilutions (within the 0-5000 pg/ml range) of samples may be prepared with the diluent. The reagents are dispensed (as outlined in the protocol) into a 384-well low volume plate (20 ul). Negative and positive controls are included. The plate is covered with a plate sealer and incubated for 5 hours at room temperature or overnight at 4° C. Free PGE2 from the sample competes with […] for binding to the Cryptate conjugated anti-PGE2 antibody. Then the plate is read on a compatible HTRF reader.
as §4

Like-named read-outs stand apart in the source and are kept apart here.

T2 sequence (P05979 25-600): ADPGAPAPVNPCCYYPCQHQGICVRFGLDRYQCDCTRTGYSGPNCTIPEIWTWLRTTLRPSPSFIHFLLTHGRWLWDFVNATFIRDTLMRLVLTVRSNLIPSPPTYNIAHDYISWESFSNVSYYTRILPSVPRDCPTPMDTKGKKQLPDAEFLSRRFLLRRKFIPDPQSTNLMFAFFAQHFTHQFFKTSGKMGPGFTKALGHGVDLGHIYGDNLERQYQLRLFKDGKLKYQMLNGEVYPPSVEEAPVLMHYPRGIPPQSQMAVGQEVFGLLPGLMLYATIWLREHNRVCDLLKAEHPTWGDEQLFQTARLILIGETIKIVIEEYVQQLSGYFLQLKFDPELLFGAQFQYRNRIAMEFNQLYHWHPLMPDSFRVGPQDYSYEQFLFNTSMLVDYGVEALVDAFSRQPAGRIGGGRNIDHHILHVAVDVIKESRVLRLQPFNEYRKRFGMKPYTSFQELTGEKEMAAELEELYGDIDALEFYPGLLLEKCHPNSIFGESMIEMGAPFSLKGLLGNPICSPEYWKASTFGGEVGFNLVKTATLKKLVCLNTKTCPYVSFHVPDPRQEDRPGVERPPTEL

On to `C=C1CC[C@@H]2[C@](C)(CO)[C@H](O)CC[C@@]2(C)[C@@H]1C/C=C1/C(=O)OC[C@H]1O` [Andrographolide, andrographolide], for which, in the assay with IP-10 (CXCL10), the “IP-10 (CXCL10)” value was determined as 18.07 pg/mL.
The IC50 is the midpoint of a concentration-inhibition curve. `COc1cc(/C=C/C(=O)CC(=O)/C=C/c2ccc(O)c(OC)c2)ccc1O` [Curcumin, curcumin]: the 50% inhibitory concentration (IC50) is 5.9 µM in the assay on NF-kB [1] and 37.5 µM in the assay on NF-kB [2].
On to `CCCc1ccc(O)c(OC)c1` [DIHYDROEUGENOL, dihydroeugenol], for which the IC50 came to 75 µM at human recombinant COX-2; 82 µM on ovine COX-1 (purified enzyme, read-out: IC50 COX-1 activity); 0.38 µM with PGE2 formation (cells infected with rhinovirus (A549 named as suitable line), read-out: IC50 PGE2 formation).
As for `CCOc1ccc2c(c1)C(C)=CC(C)(C)N2` [ETHOXYQUIN, ethoxyquin], the IC50 came to 54 µM on human recombinant COX-2; 459 µM at ovine COX-1; 0.03 µM with PGE2 formation (Homo sapiens, cells infected with rhinovirus (A549 named as suitable line), read-out: IC50 PGE2 formation).
As to `C=CCc1ccc(O)c(OC)c1` [EUGENOL, eugenol], the half-inhibitory concentration (IC50) amounted to 42 µM against ovine COX-1 and 0.42 µM in the assay on PGE2 formation (Homo sapiens, A549, read-out: IC50 PGE2 formation).
